In general, CC50 refers to the concentration that lowers cell viability or growth by half. Lower therefore signals greater toxicity to the cells.

One data set relates to HIV. In words: Inhibition of HIV-induced cytopathic effect in MT-4 cells (MTT). The settings on record: for EC50: Human immunodeficiency virus 1, MT4, dose achieving 50% protection of HIV-infected MT-4 cells, MTT, 540 nm, read-out: ED50 (50% effective dose); for SI (selectivity index): ratio of CD50 to ED50. In kind it is cell-based. On the procedure:
(§1) A rapid, sensitive and automated assay procedure was used for the in-vitro evaluation of anti-HIV agents. An […] T4-cell line, MT-4, which was previously shown (Koyanagi et al., Int. J. Cancer, 36, 445-451, 1985) to be highly susceptible to and permissive for HIV infection, served as the target cell line. Inhibition of the HIV-induced cytopathic effect was used as the end point. The viability of both HIV- and mock-infected cells was assessed spectrophotometrically via the in-situ reduction of 3-(4,5-dimethylthiazol-2-yl)-2,5-diphenyltetrazolium bromide (MTT). The 50% cytotoxic dose (CD50 in µg/ml) was defined as the concentration of compound that reduced the absorbance of the mock-infected control sample by 50%. The percent protection achieved by the compound in HIV-infected cells was calculated by the following formula: ((ODT )HIV - (ODC )HIV)/((ODC )MOCK - (ODC )HIV) [formula] expressed in %, whereby (ODT)HIV is the optical density measured with a given concentration of the test compound in HIV-infected cells; (ODC)HIV is the optical density measured for the control untreated HIV-infected cells; (ODC)MOCK is the optical density measured for the control untreated mock-infected cells; all optical density values were determined at 540 nm. The dose achieving 50% protection according to the above formula was defined as the 50% effective dose (ED50 in µg/ml). The ratio of CD50 to ED50 was defined as the selectivity index (SI).
(In general: Damage to the host cells serves as the signal in cytopathic effect assays.)

Another data set is described as follows: in vitro. In kind it is cell-based. Conditions: human, mt-4 cells. As to the method:
as §1

In brackets after ≈: the same amount, converted by molar mass.

In the case of `CCC(=CCN1Cc2cc(Cl)cc3[nH]c(=O)n(c23)C[C@@H]1C)CC` [compound 2], in the data set on HIV, the EC50 stood at 0.032 µg/mL (≈ 0.0958 µM) and the “SI (selectivity index)” value is listed as over 312. This compound also returned a CC50 in “in vitro” of over 10 µg/mL.
The matching figures for `CCC(=CCN1Cc2c(C)ccc3[nH]c(=O)n(c23)C[C@@H]1C)CC` [compound 5, (+)-(S)-6-(3-ethyl-2-pentenyl)-4,5,6,7-tetrahydro-5,8-dimethylimidazo-[4,5,1-jk][1,4]benzodiazepin-2(1H)-one]: 0.038 µg/mL (≈ 0.121 µM), 370 and 14.3 µg/mL (≈ 45.6 µM).
For `CCC(=CCN1Cc2cc(Cl)cc3[nH]c(=S)n(c23)C[C@@H]1C)CC.Cl` [compound 7, (-)-(S)-9-chloro-6-(3-ethyl-2-pentenyl)-4,5,6,7-tetrahydro-5-methylimidazo[4,5,1-jk][1,4]benzodiazepine-2(1H)-thione monohydrochloride], in the data set with HIV, the EC50 was determined as 0.006 µg/mL and the “SI (selectivity index)” value came out at 850. This compound came in with a CC50 in the data set “in vitro” of 5.2 µg/mL.

For the origin of these results see EP0538297B9, “ANTIVIRAL TETRAHYDROIMIDAZO 1,4]BENZODIAZEPIN-2-(THIO)ONES” (JANSSEN PHARMACEUTICA N.V., priority 1990, dated 1992).
